From patent publication US12215107B1, “Pyrazino[1′,2′:1,5]pyrazolo[4,3-c] [2,6] naphthyridine compounds as CK2 inhibitors” (KING FAISAL UNIVERSITY, priority 2024, dated 2025)

Experiments:
H1299 (lung) = experiment: MTT in vitro cytotoxic activity assay, H1299; assay type: cell-based; conditions: Homo sapiens, NCI-H1299, cells exposed for 96 hours, read-out: Cytotoxicity activity IC50 (50% inhibition of cell proliferation)
Protocol: (§1) Compounds 1-16 were screened for their in vitro cytotoxic activity utilizing a 3-(4,5-dimethyl-thiazol-2-yl)-2,5-diphenyltetrazolium bromide (MTT) assay against selected cancer human cell lines consisting of PC3 (prostate), HCT116 (colon), A375 (melanoma), H1299 (lung), MIAPaCa-2 (pancreas), HL60 (leukemia), MCF7 (breast), MDA-MB-231 (breast) (T. Mosmann, J. Immunol. Meth., 1983, 65, 55-63). The cells were cultured at 37° C. in RMPI1640 medium supplemented with 10% fetal bovine serum, 50 IU/mL penicillin, and 50 μg/mL streptomycin in a 5% CO2 incubator. All cells were sub-cultured 3 times/week by trypsinisation. Viable cells were seeded and allowed to adhere for 12 hours before a test drug was added in 96-well plates at an initial density of 1.0×10^5 cells/mL. Tumor cell lines were separately exposed to various concentrations of the tested compounds followed by incubation at a temperature of 37° C. during 96 hours inside a medium of fresh RMPI 1640. Cells were subsequently incubated at 37° C. using MTT at 0.5 mg/mL during 4 hours. After removal of supernatant, formazan crystals were dissolved in isopropanol and the optical density was measured at 570 nm. CX-4945 was used as a positive control.

A375 (melanoma) = experiment: MTT in vitro cytotoxic activity assay, A375; assay type: cell-based; conditions: Homo sapiens, A-375, cells exposed for 96 hours, read-out: Cytotoxicity activity IC50 (50% inhibition of cell proliferation)
Protocol: as §1

MDA-MB-231 (breast) = experiment: MTT in vitro cytotoxic activity assay, MDA-MB-231; assay type: cell-based; conditions: Homo sapiens, cells exposed for 96 hours, read-out: Cytotoxicity activity IC50 (50% inhibition of cell proliferation)
Protocol: as §1

MCF7 (breast) = experiment: MTT in vitro cytotoxic activity assay, MCF7; assay type: cell-based; conditions: Homo sapiens, cells exposed for 96 hours, read-out: Cytotoxicity activity IC50 (50% inhibition of cell proliferation)
Protocol: as §1

HL60 (leukemia) = experiment: MTT in vitro cytotoxic activity assay, HL60; assay type: cell-based; conditions: Homo sapiens, HL-60, cells exposed for 96 hours, read-out: Cytotoxicity activity IC50 (50% inhibition of cell proliferation)
Protocol: as §1

PC3 (prostate) = experiment: MTT in vitro cytotoxic activity assay, PC3; assay type: cell-based; conditions: Homo sapiens, Prostate cell, cells exposed for 96 hours, read-out: Cytotoxicity activity IC50 (50% inhibition of cell proliferation)
Protocol: as §1

MIAPaCa-2 (pancreas) = experiment: MTT in vitro cytotoxic activity assay, MIAPaCa-2; assay type: cell-based; conditions: Homo sapiens, MIA PaCa-2, cells exposed for 96 hours, read-out: Cytotoxicity activity IC50 (50% inhibition of cell proliferation)
Protocol: as §1

[1] = biological target: T1, recombinant human CK2 (RRββ-holoenzyme) (Homo sapiens, UniProt P68400); experiment: CK2 Kinase Assay (33P-ATP, filter plate); assay type: biochemical; conditions: final ATP concentration 15 μM, 10 minutes at 30° C.; read-out: protein kinase CK2 IC50
T1 construct: purchased Millipore
Protocol: CK2 Kinase Assay was conducted using the protocol as described in Pierre F. et al; J. Med. Chem. 2011, 54, 635-654. The tested compounds in aqueous solution were added at a volume of 10 μL to a reaction mixture comprising 10 μL of assay dilution buffer (ADB; 20 mM MOPS, pH 7.2, 25 mM β-glycerol phosphate, 5 mM EGTA, 1 mM sodium orthovanadate, and 1 mM dithiothreitol), 10 μL of substrate peptide (RRRDDDSDDD, dissolved in ADB at a concentration of 1 mM), 10 μL of recombinant human CK2 (RRββ-holoenzyme, 25 ng dissolved in ADB; Millipore). Reactions were initiated by the addition of 10 μL of ATP solution (90% 75 mMMgCl2, 75 μM ATP (final ATP concentration: 15 μM) dissolved in ADB; 10% [γ-33P] ATP (stock 1 mCi/100 μL; 3000 Ci/mmol (Perkin-Elmer) and maintained for 10 minutes at 30° C. The reactions were quenched with 100 μL of 0.75% phosphoric acid and then transferred to and filtered through a phosphor cellulose filter plate (Millipore). After washing each well five times with 0.75% phosphoric acid, the plate was dried under vacuum for 5 min and, following the addition of 15 μL of scintillation fluid to each well, the residual radioactivity was measured using a Wallac […]. The IC50 values were derived from eight concentrations of test inhibitors.

HCT116 (colon) = experiment: MTT in vitro cytotoxic activity assay, HCT116; assay type: cell-based; conditions: Homo sapiens, HCT-116, cells exposed for 96 hours, read-out: Cytotoxicity activity IC50 (50% inhibition of cell proliferation)
Protocol: as §1

T1 sequence (P68400 whole entry): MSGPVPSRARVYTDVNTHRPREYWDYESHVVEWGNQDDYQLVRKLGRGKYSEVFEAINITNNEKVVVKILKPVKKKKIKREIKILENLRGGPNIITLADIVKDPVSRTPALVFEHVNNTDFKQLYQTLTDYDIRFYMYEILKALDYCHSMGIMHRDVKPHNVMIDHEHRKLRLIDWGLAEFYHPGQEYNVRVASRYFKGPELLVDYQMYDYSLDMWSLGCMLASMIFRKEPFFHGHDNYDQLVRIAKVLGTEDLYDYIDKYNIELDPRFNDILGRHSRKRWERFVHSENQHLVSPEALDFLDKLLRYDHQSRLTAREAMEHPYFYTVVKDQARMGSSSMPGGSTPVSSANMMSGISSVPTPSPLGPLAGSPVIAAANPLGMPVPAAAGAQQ
T1 sequence (P67870 whole entry partner): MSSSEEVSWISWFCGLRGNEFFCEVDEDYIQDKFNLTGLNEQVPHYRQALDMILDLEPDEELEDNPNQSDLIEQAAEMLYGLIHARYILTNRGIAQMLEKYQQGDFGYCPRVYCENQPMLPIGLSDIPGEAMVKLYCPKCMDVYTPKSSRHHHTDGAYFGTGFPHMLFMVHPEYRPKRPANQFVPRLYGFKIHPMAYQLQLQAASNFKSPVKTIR

IC50 [1]: 22 nM
SMILES: Clc1cccc(Nc2nc3c(nn4ccncc34)c3cnccc23)c1 [Compound (1), N-(3-chlorophenyl)pyrazino[1′,2′:1,5]pyrazolo[4,3-c][2,6]naphthyridin-5-amine]
IC50 (H1299 (lung)): 1900 nM | IC50 (A375 (melanoma)): 3.2 µM | IC50 (MDA-MB-231 (breast)): 4.1 µM | IC50 (MCF7 (breast)): 4.9 µM | IC50 (HL60 (leukemia)): 3.7 µM | IC50 (PC3 (prostate)): 1100 nM | IC50 (MIAPaCa-2 (pancreas)): 1000 nM | IC50 (HCT116 (colon)): 1500 nM
